Source: patent publication US6737383B1, “Herbicidal oxadiazolidines” (priority 1999, dated 2004)

Legend:
bamyardgrass = test: Test B flood test barnyardgrass; assay type: in vivo, Echinochloa crus-galli
Method in brief: (§1)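 Flood test on plants grown to the 2-leaf stage; treated plants kept in greenhouse twelve to sixteen days, then visually rated against controls on a 0 (no effect) to 10 (complete control) scale.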

smallflower flatsedge = test: Test B flood test smallflower flatsedge; assay type: in vivo, Cyperus difformis
Method in brief: as §1

velvetleaf = test: Test B pre/postemergence velvetleaf; assay type: in vivo, Abutilon theophrasti; conditions: for Plant response rating, Velvetleaf: Rate 250 g/ha
Method in brief: (§2)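 Test chemicals in a non-phytotoxic solvent mixture with surfactant were sprayed preemergence onto planted seeds and postemergence onto plants 2 to 18 cm tall (1- to 4-leaf stage). After twelve to sixteen days in a greenhouse, injury was visually rated against untreated controls from 0 (no effect) to 10 (complete control).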

crabgrass = test: Test B pre/postemergence crabgrass; assay type: in vivo, Digitaria sanguinalis
Method in brief: as §2

giant foxtail = test: Test B pre/postemergence giant foxtail; assay type: in vivo, Setaria faberii
Method in brief: as §2

blackgrass = test: Test B pre/postemergence blackgrass; assay type: in vivo, Alopecurus myosuroides
Method in brief: as §2

duck salad = test: Test B flood test duck salad; assay type: in vivo, Heteranthera limosa
Method in brief: as §1

sugar beet = test: Test B pre/postemergence sugar beet; assay type: in vivo, Beta vulgaris; conditions: for Plant response rating, Sugarbeets: Rate 250 g/ha
Method in brief: as §2

corn = test: Test B pre/postemergence corn; assay type: in vivo, Zea mays
Method in brief: as §2

bedstraw = test: Test B pre/postemergence bedstraw; assay type: in vivo, Galium aparine
Method in brief: as §2

surinam grass = test: Test B pre/postemergence surinam grass; assay type: in vivo, Brachiaria decumbens
Method in brief: as §2

rice = test: Test B flood test rice; assay type: in vivo, Oryza sativa
Method in brief: as §1

wild oat = test: Test B pre/postemergence wild oat; assay type: in vivo, Avena fatua; conditions: for Plant response rating, Wild oats: Rate 250 g/ha
Method in brief: as §2

wheat = test: Test B pre/postemergence wheat; assay type: in vivo, Triticum aestivum; conditions: for Plant response rating, Wheat: Rate 250 g/ha
Method in brief: as §2

purple nutsedge = test: Test B pre/postemergence purple nutsedge; assay type: in vivo, Cyperus rotundus
Method in brief: as §2

rape = test: Test B pre/postemergence rape; assay type: in vivo, Brassica napus
Method in brief: as §2

[1] = Postemergence, Rate 62 g/ha, scale 0 to 10, 0 is no effect, 10 is complete control
[2] = Rate 500 g/ha, listed under Postemergence (flood test species), scale 0 to 10, 0 no effect, 10 complete control
[3] = flood test, listed under Postemergence, Rate 250 g/ha, scale 0 to 10, 0 no effect, 10 complete control
[4] = Postemergence (flood test species), Rate 125 g/ha, scale of 0 to 10 where 0 is no effect and 10 is complete control
[5] = Rate 62 g/ha, Postemergence section, flood test species, scale of 0 to 10 where 0 is no effect and 10 is complete control
[6] = Rate 250 g/ha, Postemergence (flood test), scale 0 to 10, 0 is no effect, 10 is complete control
[7] = Postemergence, Rate 125 g/ha, scale of 0 to 10 where 0 is no effect and 10 is complete control
[8] = Preemergence, Rate 62 g/ha, scale 0 to 10 (0 no effect, 10 complete control)
[9] = Preemergence, Rate 125 g/ha, 0 is no effect, 10 is complete control
[10] = Preemergence, scale of 0 to 10 where 0 is no effect and 10 is complete control
[11] = Preemergence, Rate 500 g/ha, scale 0 to 10 (0 no effect, 10 complete control)
[12] = Rate 62 g/ha, Postemergence, scale of 0 to 10 where 0 is no effect and 10 is complete control
[13] = Postemergence, scale 0 to 10, 0 is no effect, 10 is complete control
[14] = Rate 500 g/ha, Postemergence, scale 0 to 10, 0 no effect, 10 complete control
[15] = Postemergence, Rate 250 g/ha, scale 0 to 10, 0 no effect, 10 complete control
[16] = Preemergence, Rate 125 g/ha, scale 0 to 10 (0 no effect, 10 complete control)
[17] = Preemergence, Rate 250 g/ha, scale of 0 to 10 where 0 is no effect and 10 is complete control
[18] = Rate 125 g/ha, Postemergence, scale 0 to 10, 0 no effect, 10 complete control

Structure (SMILES): CC(C)N(C(=O)n1oc(=O)n(Cc2ccccc2)c1=O)c1ccc(Cl)cc1 [Compound 106]
- Barnyardgrass plant response rating (bamyardgrass; [1]): 0
- Barnyardgrass plant response rating (bamyardgrass; Rate 125 g/ha, Postemergence section (flood test species), scale 0 to 10, 0 no effect, 10 complete control): 0
- Barnyardgrass plant response rating (bamyardgrass; [2]): 0
- Barnyardgrass plant response rating (bamyardgrass; [3]): 0
- S. Flatsedge plant response rating (smallflower flatsedge; [4]): 0
- S. Flatsedge plant response rating (smallflower flatsedge; [5]): 0
- Plant response rating, S. Flatsedge (smallflower flatsedge; [6]): 0
- S. Flatsedge plant response rating (smallflower flatsedge; [2]): 0
- Velvetleaf plant response rating (velvetleaf; [7]): 0
- Velvetleaf plant response rating (velvetleaf; [8]): 0
- Velvetleaf plant response rating (0 to 10 scale) (velvetleaf; [9]): 0
- Plant response rating, Velvetleaf (velvetleaf; [10]): 0
- Velvetleaf plant response rating (velvetleaf; [11]): 0
- Velvetleaf plant response rating (velvetleaf; [12]): 0
- Plant response rating, Velvetleaf (velvetleaf; [13]): 2
- Velvetleaf plant response rating (velvetleaf; [14]): 2
- Crabgrass plant response rating (crabgrass; [7]): 0
- Crabgrass plant response rating (crabgrass; [15]): 3
- Crabgrass plant response rating (crabgrass; [8]): 0
- Plant response rating, Crabgrass (crabgrass; [16]): 0
- Plant response rating, Crabgrass (crabgrass; [17]): 8
- Crabgrass plant response rating (crabgrass; [11]): 8
- Crabgrass plant response rating (crabgrass; [12]): 0
- Crabgrass plant response rating (crabgrass; [14]): 6
- Giant foxtail plant response rating (giant foxtail; [7]): 2
- Giant foxtail plant response rating (giant foxtail; [15]): 3
- Giant foxtail plant response rating (giant foxtail; [8]): 2
- Plant response rating, Giant foxtail (giant foxtail; [16]): 5
- Plant response rating, Giant foxtail (giant foxtail; [17]): 10
- Giant foxtail plant response rating (giant foxtail; [11]): 10
- Giant foxtail plant response rating (giant foxtail; [12]): 0
- Giant foxtail plant response rating (giant foxtail; [14]): 3
- Blackgrass plant response rating (blackgrass; [7]): 0
- Blackgrass plant response rating (blackgrass; [15]): 1
- Blackgrass plant response rating (blackgrass; [8]): 0
- Plant response rating, Blackgrass (blackgrass; [16]): 0
- Plant response rating, Blackgrass (blackgrass; [17]): 0
- Blackgrass plant response rating (blackgrass; [11]): 2
- Blackgrass plant response rating (blackgrass; [12]): 0
- Blackgrass plant response rating (blackgrass; [14]): 3
- Ducksalad plant response rating (duck salad; [4]): 0
- Ducksalad plant response rating (duck salad; [5]): 0
- Ducksalad plant response rating (duck salad; [2]): 0
- Ducksalad plant response rating (duck salad; [3]): 0
- Sugarbeets plant response rating (sugar beet; [7]): 0
- Sugarbeets plant response rating (sugar beet; [8]): 0
- Sugarbeets plant response rating (0 to 10 scale) (sugar beet; [9]): 0
- Plant response rating, Sugarbeets (sugar beet; [10]): 0
- Sugarbeets plant response rating (sugar beet; [11]): 2
- Sugarbeets plant response rating (sugar beet; [12]): 0
- Plant response rating, Sugarbeets (sugar beet; [13]): 0
- Sugarbeets plant response rating (sugar beet; [14]): 0
- Corn plant response rating (corn; [7]): 0
- Corn plant response rating (corn; [15]): 0
- Corn plant response rating (corn; [8]): 0
- Plant response rating, Corn (corn; [16]): 0
- Plant response rating, Corn (corn; [17]): 0
- Corn plant response rating (corn; [11]): 0
- Corn plant response rating (corn; [12]): 0
- Corn plant response rating (corn; [14]): 0
- Bedstraw plant response rating (bedstraw; [1]): 0
- Bedstraw plant response rating (bedstraw; [15]): 3
- Bedstraw plant response rating (bedstraw; [8]): 0
- Plant response rating, Bedstraw (bedstraw; [16]): 0
- Plant response rating, Bedstraw (bedstraw; [17]): 3
- Bedstraw plant response rating (bedstraw; [11]): 4
- Bedstraw plant response rating (bedstraw; [18]): 0
- Bedstraw plant response rating (bedstraw; [14]): 7
- B. signalgrass plant response rating (surinam grass; [1]): 0
- B. signalgrass plant response rating (surinam grass; [15]): 0
- B. signalgrass plant response rating (surinam grass; [8]): 0
- Plant response rating, B. signalgrass (surinam grass; [16]): 0
- Plant response rating, B. signalgrass (surinam grass; [17]): 0
- B. signalgrass plant response rating (surinam grass; [11]): 2
- B. signalgrass plant response rating (surinam grass; [18]): 0
- B. signalgrass plant response rating (surinam grass; Rate 500 g/ha, Postemergence, scale of 0 to 10 where 0 is no effect and 10 is complete control): 0
- Rice plant response rating (rice; [4]): 0
- Rice plant response rating (rice; [5]): 0
- Plant response rating, Rice (rice; [6]): 0
- Rice plant response rating (rice; [2]): 0
- Wild oats plant response rating (wild oat; [7]): 0
- Wild oats plant response rating (wild oat; [8]): 0
- Wild oats plant response rating (0 to 10 scale) (wild oat; [9]): 0
- Plant response rating, Wild oats (wild oat; [10]): 0
- Wild oats plant response rating (wild oat; [11]): 0
- Wild oats plant response rating (wild oat; [12]): 0
- Plant response rating, Wild oats (wild oat; [13]): 0
- Wild oats plant response rating (wild oat; [14]): 0
- Wheat plant response rating (wheat; [7]): 0
- Wheat plant response rating (wheat; [8]): 0
- Wheat plant response rating (0 to 10 scale) (wheat; [9]): 0
- Plant response rating, Wheat (wheat; [10]): 0
- Wheat plant response rating (wheat; [11]): 0
- Wheat plant response rating (wheat; [12]): 0
- Plant response rating, Wheat (wheat; [13]): 0
- Wheat plant response rating (wheat; [14]): 0
- Nutsedge plant response rating (purple nutsedge; [7]): 0
- Nutsedge plant response rating (purple nutsedge; [15]): 0
- Nutsedge plant response rating (purple nutsedge; [8]): 0
- Plant response rating, Nutsedge (purple nutsedge; [16]): 0
- Plant response rating, Nutsedge (purple nutsedge; [17]): 0
- Nutsedge plant response rating (purple nutsedge; [11]): 0
- Nutsedge plant response rating (purple nutsedge; [12]): 0
- Nutsedge plant response rating (purple nutsedge; [14]): 0
- Rape plant response rating (rape; [7]): 0
- Rape plant response rating (rape; [15]): 0
- Rape plant response rating (rape; [8]): 0
- Plant response rating, Rape (rape; [16]): 0
- Plant response rating, Rape (rape; [17]): 0
- Rape plant response rating (rape; [11]): 2
- Rape plant response rating (rape; [12]): 0
- Rape plant response rating (rape; [14]): 0
